Tests used:
Settings in all cases: three weeks after treatment
Triticum aestivum [1] = experiment: Pre-emergence herbicidal evaluation, TRZAW; type: in vivo
Source text: (§1) The treated pots are then placed on greenhouse benches, watered and cared for in accordance with conventional greenhouse procedures.

Hordeum vulgare [2] = experiment: Pre-emergence herbicidal evaluation, HORVW; type: in vivo
Source text: as §1

Echinochloa crus-galli [3] = experiment: Pre-emergence herbicidal evaluation, ECHCG; type: in vivo
Source text: as §1

Glycine max [4] = experiment: Pre-emergence herbicidal evaluation, GLXMA; type: in vivo
Source text: as §1

Zea mays [5] = experiment: Post-emergence herbicidal evaluation, ZEAMX
Experimental: (§2) Each pot is examined three weeks after treatment and phytotoxicity is assessed according to the rating system set forth below.
(§3) These acetone solutions are diluted with water and the resulting formulations applied at dosage levels equivalent of about 0.4 to 0.1 kg per hectare of test compound per pot. After spraying the plants are placed on greenhouse benches and are cared for in the usual manner, commensurate with conventional greenhouse practices.

Alopecurus myosuroides [6] = experiment: Pre-emergence herbicidal evaluation, ALOMY; type: in vivo
Source text: as §1

Oryza sativum [7] = experiment: Post-emergence herbicidal evaluation, ORYSA
Experimental: (§4) The compounds of the invention are tested for pre- and post-emergence herbicidal activity.
as §2, §3

Lolium perenne [8] = experiment: Post-emergence herbicidal evaluation, LOLPE
Experimental: as §2, §3

Amaranthus tuberculatus [9] = experiment: Pre-emergence herbicidal evaluation, AMATA; type: in vivo
Source text: as §1

Apera spica venti [10] = experiment: Pre-emergence herbicidal evaluation, APESV; type: in vivo
Source text: as §1

Galium aparine = experiment: Post-emergence herbicidal evaluation, GALAP
Oryza sativum [11] = experiment: Pre-emergence herbicidal evaluation, ORYSA; type: in vivo
Source text: as §1

Alopecurus myosuroides [12] = experiment: Post-emergence herbicidal evaluation, ALOMY
Experimental: as §4, §2, §3

Zea mays [13] = experiment: Pre-emergence herbicidal evaluation, ZEAMX; type: in vivo
Source text: as §1

Lolium perenne [14] = experiment: Pre-emergence herbicidal evaluation, LOLPE; type: in vivo
Source text: as §1

Glycine max [15] = experiment: Post-emergence herbicidal evaluation, GLXMA
Setaria viridis [16] = experiment: Post-emergence herbicidal evaluation, SETVI
Amaranthus tuberculatus [17] = experiment: Post-emergence herbicidal evaluation, AMATA; type: in vivo
Hordeum vulgare [18] = experiment: Post-emergence herbicidal evaluation, HORVW
Experimental: as §2, §3

Setaria viridis [19] = experiment: Pre-emergence herbicidal evaluation, SETVI; type: in vivo
Source text: as §1

Triticum aestivum [20] = experiment: Post-emergence herbicidal evaluation, TRZAW
Echinochloa crus-galli [21] = experiment: Post-emergence herbicidal evaluation, ECHCG
Apera spica venti [22] = experiment: Post-emergence herbicidal evaluation, APESV

## CCc1nnc(OCC(=O)N(C2=CC(C)(C)CC(C)=C2)C(C)C)s1 [Example 11]
Triticum aestivum [1]; 0.100 kg/ha
  phytotoxicity rating TRZAW: 0 (0 - No effect)
Triticum aestivum [1]; 0.200 kg/ha
  phytotoxicity rating TRZAW: 0 (0 - No effect)
Triticum aestivum [1]; 0.400 kg/ha
  phytotoxicity rating TRZAW: 2 (2 - Slight effect)
Triticum aestivum [1]; 0.800 kg/ha
  phytotoxicity rating TRZAW: 3 (3 - Moderate effect)
Hordeum vulgare [2]; 0.100 kg/ha
  phytotoxicity rating HORVW: 0 (0 - No effect)
Hordeum vulgare [2]; 0.200 kg/ha
  phytotoxicity rating HORVW: 0 (0 - No effect)
Hordeum vulgare [2]; 0.400 kg/ha
  phytotoxicity rating HORVW: 1 (1 - Trace effect)
Hordeum vulgare [2]; 0.800 kg/ha
  phytotoxicity rating HORVW: 4 (4 - Injury)
Echinochloa crus-galli [3]; 0.100 kg/ha
  phytotoxicity rating ECHCG: 7 (7 - Good herbicidal effect)
Echinochloa crus-galli [3]; 0.200 kg/ha
  phytotoxicity rating ECHCG: 7 (7 - Good herbicidal effect)
Echinochloa crus-galli [3]; 0.400 kg/ha
  phytotoxicity rating ECHCG: 9 (9 - Complete kill)
Echinochloa crus-galli [3]; 0.800 kg/ha
  phytotoxicity rating ECHCG: 9 (9 - Complete kill)
Glycine max [4]; 0.100 kg/ha
  phytotoxicity rating GLXMA: 0 (0 - No effect)
Glycine max [4]; 0.200 kg/ha
  phytotoxicity rating GLXMA: 0 (0 - No effect)
Glycine max [4]; 0.400 kg/ha
  phytotoxicity rating GLXMA: 0 (0 - No effect)
Glycine max [4]; 0.800 kg/ha
  phytotoxicity rating GLXMA: 0 (0 - No effect)
Zea mays [5]; 0.100 kg/ha
  phytotoxicity rating ZEAMX: 0 (0 - No effect)
Zea mays [5]; 0.200 kg/ha
  phytotoxicity rating ZEAMX: 1 (1 - Trace effect)
Zea mays [5]; 0.400 kg/ha
  phytotoxicity rating ZEAMX: 4 (4 - Injury)
Alopecurus myosuroides [6]; 0.100 kg/ha
  phytotoxicity rating ALOMY: 7 (7 - Good herbicidal effect)
Alopecurus myosuroides [6]; 0.200 kg/ha
  phytotoxicity rating ALOMY: 8 (8 - Approaching complete kill)
Alopecurus myosuroides [6]; 0.400 kg/ha
  phytotoxicity rating ALOMY: 8 (8 - Approaching complete kill)
Alopecurus myosuroides [6]; 0.800 kg/ha
  phytotoxicity rating ALOMY: 9 (9 - Complete kill)
Oryza sativum [7]; 0.100 kg/ha
  phytotoxicity rating ORYSA: 0 (0 - No effect)
Oryza sativum [7]; 0.200 kg/ha
  phytotoxicity rating ORYSA: 0 (0 - No effect)
Oryza sativum [7]; 0.400 kg/ha
  phytotoxicity rating ORYSA: 2 (2 - Slight effect)
Lolium perenne [8]; 0.100 kg/ha
  phytotoxicity rating LOLPE: 3 (3 - Moderate effect)
Lolium perenne [8]; 0.200 kg/ha
  phytotoxicity rating LOLPE: 5 (5 - Definite injury)
Lolium perenne [8]; 0.400 kg/ha
  phytotoxicity rating LOLPE: 8 (8 - Approaching complete kill)
Amaranthus tuberculatus [9]; 0.100 kg/ha
  phytotoxicity rating AMATA: 0 (0 - No effect)
Amaranthus tuberculatus [9]; 0.200 kg/ha
  phytotoxicity rating AMATA: 0 (0 - No effect)
Amaranthus tuberculatus [9]; 0.400 kg/ha
  phytotoxicity rating AMATA: 0 (0 - No effect)
Amaranthus tuberculatus [9]; 0.800 kg/ha
  phytotoxicity rating AMATA: 4 (4 - Injury)
Apera spica venti [10]; 0.100 kg/ha
  phytotoxicity rating APESV: 0 (0 - No effect)
Apera spica venti [10]; 0.200 kg/ha
  phytotoxicity rating APESV: 0 (0 - No effect)
Apera spica venti [10]; 0.400 kg/ha
  phytotoxicity rating APESV: 5 (5 - Definite injury)
Apera spica venti [10]; 0.800 kg/ha
  phytotoxicity rating APESV: 5 (5 - Definite injury)
Galium aparine; 0.100 kg/ha
  phytotoxicity rating GALAP: 0 (0 - No effect)
Galium aparine; 0.200 kg/ha
  phytotoxicity rating GALAP: 0 (0 - No effect)
Galium aparine; 0.400 kg/ha
  phytotoxicity rating GALAP: 0 (0 - No effect)
Oryza sativum [11]; 0.100 kg/ha
  phytotoxicity rating ORYSA: 0 (0 - No effect)
Oryza sativum [11]; 0.200 kg/ha
  phytotoxicity rating ORYSA: 1 (1 - Trace effect)
Oryza sativum [11]; 0.400 kg/ha
  phytotoxicity rating ORYSA: 4 (4 - Injury)
Oryza sativum [11]; 0.800 kg/ha
  phytotoxicity rating ORYSA: 6 (6 - Herbicidal effect)
Alopecurus myosuroides [12]; 0.100 kg/ha
  phytotoxicity rating ALOMY: 1 (1 - Trace effect)
Alopecurus myosuroides [12]; 0.200 kg/ha
  phytotoxicity rating ALOMY: 7 (7 - Good herbicidal effect)
Alopecurus myosuroides [12]; 0.400 kg/ha
  phytotoxicity rating ALOMY: 8 (8 - Approaching complete kill)
Zea mays [13]; 0.100 kg/ha
  phytotoxicity rating ZEAMX: 0 (0 - No effect)
Zea mays [13]; 0.200 kg/ha
  phytotoxicity rating ZEAMX: 0 (0 - No effect)
Zea mays [13]; 0.400 kg/ha
  phytotoxicity rating ZEAMX: 0 (0 - No effect)
Zea mays [13]; 0.800 kg/ha
  phytotoxicity rating ZEAMX: 7 (7 - Good herbicidal effect)
Lolium perenne [14]; 0.100 kg/ha
  phytotoxicity rating LOLPE: 4 (4 - Injury)
Lolium perenne [14]; 0.200 kg/ha
  phytotoxicity rating LOLPE: 5 (5 - Definite injury)
Lolium perenne [14]; 0.400 kg/ha
  phytotoxicity rating LOLPE: 8 (8 - Approaching complete kill)
Lolium perenne [14]; 0.800 kg/ha
  phytotoxicity rating LOLPE: 9 (9 - Complete kill)
Glycine max [15]; 0.100 kg/ha
  phytotoxicity rating GLXMA: 3 (3 - Moderate effect)
Glycine max [15]; 0.200 kg/ha
  phytotoxicity rating GLXMA: 5 (5 - Definite injury)
Glycine max [15]; 0.400 kg/ha
  phytotoxicity rating GLXMA: 5 (5 - Definite injury)
Setaria viridis [16]; 0.100 kg/ha
  phytotoxicity rating SETVI: 0 (0 - No effect)
Setaria viridis [16]; 0.200 kg/ha
  phytotoxicity rating SETVI: 0 (0 - No effect)
Setaria viridis [16]; 0.400 kg/ha
  phytotoxicity rating SETVI: 0 (0 - No effect)
Amaranthus tuberculatus [17]; 0.100 kg/ha
  phytotoxicity rating AMATA: 0 (0 - No effect)
Amaranthus tuberculatus [17]; 0.200 kg/ha
  phytotoxicity rating AMATA: 3 (3 - Moderate effect)
Amaranthus tuberculatus [17]; 0.400 kg/ha
  phytotoxicity rating AMATA: 4 (4 - Injury)
Hordeum vulgare [18]; 0.100 kg/ha
  phytotoxicity rating HORVW: 0 (0 - No effect)
Hordeum vulgare [18]; 0.200 kg/ha
  phytotoxicity rating HORVW: 0 (0 - No effect)
Hordeum vulgare [18]; 0.400 kg/ha
  phytotoxicity rating HORVW: 1 (1 - Trace effect)
Setaria viridis [19]; 0.100 kg/ha
  phytotoxicity rating SETVI: 6 (6 - Herbicidal effect)
Setaria viridis [19]; 0.200 kg/ha
  phytotoxicity rating SETVI: 8 (8 - Approaching complete kill)
Setaria viridis [19]; 0.400 kg/ha
  phytotoxicity rating SETVI: 8 (8 - Approaching complete kill)
Setaria viridis [19]; 0.800 kg/ha
  phytotoxicity rating SETVI: 9 (9 - Complete kill)
Triticum aestivum [20]; 0.100 kg/ha
  phytotoxicity rating TRZAW: 0 (0 - No effect)
Triticum aestivum [20]; 0.200 kg/ha
  phytotoxicity rating TRZAW: 0 (0 - No effect)
Triticum aestivum [20]; 0.400 kg/ha
  phytotoxicity rating TRZAW: 1 (1 - Trace effect)
Echinochloa crus-galli [21]; 0.100 kg/ha
  phytotoxicity rating ECHCG: 0 (0 - No effect)
Echinochloa crus-galli [21]; 0.200 kg/ha
  phytotoxicity rating ECHCG: 2 (2 - Slight effect)
Echinochloa crus-galli [21]; 0.400 kg/ha
  phytotoxicity rating ECHCG: 3 (3 - Moderate effect)
Apera spica venti [22]; 0.100 kg/ha
  phytotoxicity rating APESV: 0 (0 - No effect)
Apera spica venti [22]; 0.200 kg/ha
  phytotoxicity rating APESV: 7 (7 - Good herbicidal effect)
Apera spica venti [22]; 0.400 kg/ha
  phytotoxicity rating APESV: 5 (5 - Definite injury)

Source: patent publication US6339042B1, “Herbicidal N-cyclohexadienyl heteroaryloxyacetamides” (American Cyanamid Co., priority 1999, dated 2002)
